Results: patent publication US9211336B2, “Antioxidant stabilized pharmaceutical formulations comprising antineoplastic compounds” (Hikma Pharmaceuticals, priority 2013, dated 2015)

What was measured:
[1] = Effect of controlled preparation temperature on dissolution of temozolomide
[2] = only stable in acidic conditions; cited from earlier work
[3] = solid powder, 1 month 40° C./75% RH; weight percentage
Procedure: In the tested formulations, the weight percentages of certain degradation products were measured.

[4] = Stability study, effect of pH: temozolomide solutions in various buffers; format: physicochemical

Cn1nnc2c(C(N)=O)ncn2c1=O [Temozolomide, 3,4-dihydro-3-methyl-4-oxoimidazo[5,1-d]-as-tetrazine-8-carboxamide]
Observation (dissolution of temozolomide) ([1]; Prep Temp 10 ° C., About 3 hrs): Temozolomide did not dissolve | Observation (dissolution of temozolomide) ([1]; Prep Temp 15 ° C., About 2 hrs): Temozolomide did not dissolve | Observation (dissolution of temozolomide) ([1]; Prep Temp 18 ° C.): Temozolomide dissolved | Time (to dissolve) ([1]; Prep Temp 18 ° C.): About 0.5 to 0.75 hrs | Observation (dissolution of temozolomide) ([1]; Prep Temp 19 ° C.): Temozolomide dissolved | Time (to dissolve) ([1]; Prep Temp 19 ° C.): About 0.5 to 0.75 hrs | Observation (dissolution of temozolomide) ([1]; Prep Temp 20 ° C.): Temozolomide dissolved | Time (to dissolve) ([1]; Prep Temp 20 ° C.): About 0.5 to 0.75 hrs | Observation (dissolution of temozolomide) ([1]; Prep Temp 24 ° C.): Temozolomide dissolved | Time (to dissolve) ([1]; Prep Temp 24 ° C.): About 0.5 to 0.75 hrs | Observation (dissolution of temozolomide) ([1]; Prep Temp 25 ° C.): Temozolomide dissolved | Time (to dissolve) ([1]; Prep Temp 25 ° C.): About 0.5 to 0.75 hrs | pH at which stable [2]: less than 5 | Dacarbazine-related compound A [3]: 8.4% | Max. Unknown [3]: 0.22% | Stability after 1 hr (temozolomide as % of amount originally added) ([4]; 0.1N HCl pH = 1.1): 101.7% | Stability after 5 hr ([4]; 0.1N HCl pH = 1.1): 100.2% | Stability after 6 hr ([4]; 0.1N HCl pH = 1.1): 99.8% | Stability after 1 hr (temozolomide as % of amount originally added) ([4]; Acetate Buffer pH = 4.5): 99.2% | Stability after 5 hr ([4]; Acetate Buffer pH = 4.5): 98.1% | Stability after 6 hr ([4]; Acetate Buffer pH = 4.5): 98.2% | Stability after 1 hr (temozolomide as % of amount originally added) ([4]; Hydrochloride Buffer pH = 2.2): 99.1% | Stability after 5 hr ([4]; Hydrochloride Buffer pH = 2.2): 98.6% | Stability after 6 hr ([4]; Hydrochloride Buffer pH = 2.2): 99.0% | Stability after 5 min ([4]; Phosphate Buffer pH = 6.8): 100.1% | Stability after 10 min ([4]; Phosphate Buffer pH = 6.8): 99.8% | Stability after 15 min ([4]; Phosphate Buffer pH = 6.8): 99.0% | Stability after 30 min ([4]; Phosphate Buffer pH = 6.8): 98.0% | Stability after 5 min ([4]; Phosphate Buffer pH = 7.5): 99.4% | Stability after 10 min ([4]; Phosphate Buffer pH = 7.5): 99.0% | Stability after 15 min ([4]; Phosphate Buffer pH = 7.5): 97.8% | Stability after 30 min ([4]; Phosphate Buffer pH = 7.5): 90.5% | Stability after 5 min ([4]; Water): 99.9% | Stability after 10 min ([4]; Water): 99.6% | Stability after 15 min ([4]; Water): 98.8% | Stability after 30 min ([4]; Water): 97.6%
